Source: patent US20240254119A1 (THIRD HARMONIC BIO, INC., priority 2022, published 2024)

Molecular target: T1, wtKIT (Homo sapiens, UniProt P10721)
T1 construct: 1888289AM in the reaction mixtures
Assay: HTRF biochemical assay, wtKIT (phosphorylation of a peptide substrate)
Conditions: Table 4
Experimental: Exemplary compounds were tested for ability to inhibit the phosphorylation of a peptide substrate by the tyrosine kinase wt KIT, PDGFRα, or CSF-1R. Assay procedures and results are described below.
Enzyme, substrate, and cofactors (ATP and Mn^2+) are combined in a well of a microtiter plate and incubated for 3 hours at 25° C. At the end of the incubation, the reaction is quenched by the addition of an EDTA-containing buffer.
The substrate used in the CSF-1R and PDGFRα assay is FAM-[…]-CONH2 (FAM is carboxyfluorescein). Peptide should be >95% purity. The substrate for the KIT assay is FAM-[…]-NH2.
• 1. To a well of a 384-wellplate add 5 μL of 2× enzyme buffer (or control). • 2. Add 100 nL of 100× compound. Enzyme and compound may be pre-incubated at this time if desired. • 3. Add 5 μL of 2× substrate buffer. • 4. Incubate plate at 25° C. for 3 hours. • 5. Add 10 uL of anti-phosphotyrosine antibody buffer. • 6. Read plate in BioTek Synergy Reader. Reaction Conditions for wtKIT Assay
• 100 mM HEPES, pH 7.5 0.1% BSA • 0.01% Triton x-100 • 1 mM DTT • 10 mM MnCl2 • 10 μM Sodium Orthovanadate • 10 μM Beta-Glycerophosphate • 400 μM ATP • 1% DMSO (from compound) • 1 μM FAM-[…]-CONH2, 5.0 nM wtKIT Enzyme (1888289AM)* • *Specific activity may vary from lot to lot. Enzyme concentration may need to be adjusted to yield 10-20% conversion of substrate to product.

T1 sequence (P10721 26-976): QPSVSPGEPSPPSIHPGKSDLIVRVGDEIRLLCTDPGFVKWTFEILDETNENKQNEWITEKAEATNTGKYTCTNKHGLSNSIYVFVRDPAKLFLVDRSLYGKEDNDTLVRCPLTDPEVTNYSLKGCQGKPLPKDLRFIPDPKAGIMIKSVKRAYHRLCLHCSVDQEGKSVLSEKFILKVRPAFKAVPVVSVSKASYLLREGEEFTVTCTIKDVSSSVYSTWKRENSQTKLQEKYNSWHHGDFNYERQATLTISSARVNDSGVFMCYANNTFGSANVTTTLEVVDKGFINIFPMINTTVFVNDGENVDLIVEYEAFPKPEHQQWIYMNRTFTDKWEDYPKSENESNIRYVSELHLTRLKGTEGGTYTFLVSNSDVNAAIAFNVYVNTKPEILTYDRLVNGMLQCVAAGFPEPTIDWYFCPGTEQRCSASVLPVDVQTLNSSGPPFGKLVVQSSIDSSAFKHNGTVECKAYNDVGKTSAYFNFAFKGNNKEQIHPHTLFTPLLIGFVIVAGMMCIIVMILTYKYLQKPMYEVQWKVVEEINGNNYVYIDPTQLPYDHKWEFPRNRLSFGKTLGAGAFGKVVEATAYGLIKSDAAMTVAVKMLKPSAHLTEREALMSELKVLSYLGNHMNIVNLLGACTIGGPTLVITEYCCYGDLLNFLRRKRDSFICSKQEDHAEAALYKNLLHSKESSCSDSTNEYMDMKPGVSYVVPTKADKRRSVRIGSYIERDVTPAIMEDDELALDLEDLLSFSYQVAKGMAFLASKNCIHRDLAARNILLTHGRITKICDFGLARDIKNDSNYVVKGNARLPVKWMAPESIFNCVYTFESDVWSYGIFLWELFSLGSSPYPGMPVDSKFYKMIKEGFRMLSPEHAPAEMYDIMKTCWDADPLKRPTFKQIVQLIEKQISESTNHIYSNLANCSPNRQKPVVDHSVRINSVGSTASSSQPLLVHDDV

Row | SMILES | IC50
1 | Cc1ccc(-c2noc([C@H]3C[C@@H]3F)n2)cc1NC(=O)c1cnc2ccc(-c3ccn(C)n3)cn12 [Compound I-531, N-(5-(5-((1R,2S)-2-fluorocyclopropyl)-1,2,4-oxadiazol-3-yl)-2-methylphenyl)-6-(1-methyl-1H-pyrazol-3-yl)imidazo[1,2-a]pyridine-3-carboxamide] | ≤ 50 nM
2 | Cc1ccc(-c2noc([C@H]3C[C@@H]3F)n2)cc1NC(=O)c1cnc2cc([C@H]3C[C@@H]3CO)ccn12 [Compound I-480, N-[5-[5-[(1R,2S)-2-fluorocyclopropyl]-1,2,4-oxadiazol-3-yl]-2-methyl-phenyl]-7-[(1S,2S)-2 (hydroxymethyl)cyclopropyl]imidazo[1,2-a]pyridine-3-carboxamide] | ≤ 50 nM
3 | Cc1ccc(-c2noc([C@H]3C[C@@H]3F)n2)cc1NC(=O)c1cnc2cc(CCOCCO)ccn12 [Compound I-475, N-[5-[5-[(1R,2S)-2-fluorocyclopropyl]-1,2,4-oxadiazol-3-yl]-2-methyl-phenyl]-7-[2-(2-hydroxyethoxy)ethyl]imidazo[1,2-a]pyridine-3-carboxamide] | ≤ 50 nM
4 | Cc1ccc(-c2noc(C[C@H](O)C(F)F)n2)cc1NC(=O)c1cnc2cc(OCC(C)O)ccn12 (stereo partly drawn) [Compound I-571, N-(5-(5-((S)-3,3-difluoro-2-hydroxypropyl)-1,2,4-oxadiazol-3-yl)-2-methylphenyl)-7-(2-hydroxypropoxy)imidazo[1,2-a]pyridine-3-carboxamide] | ≤ 50 nM
5 | Cc1ccc(-c2noc([C@H]3C[C@@H]3F)n2)cc1NC(=O)c1cnc2cc(C/C=C/OCCO)ccn12 [Compound I-506, N-[5-[5-[(1R,2S)-2-fluorocyclopropyl]-1,2,4-oxadiazol-3-yl]-2-methyl-phenyl]-7-[(E)-3-(2-hydroxyethoxy)allyl]imidazo[1,2-a]pyridine-3-carboxamide] | ≤ 50 nM
6 | Cc1ccc(-c2nc(-c3ccc(C)c(NC(=O)c4cnc5cc(C)ccn45)c3)no2)nc1 [Compound I-544] | 50 to 500 nM

More lines, now with the values ahead:

Row | IC50 | SMILES
7 | ≤ 50 nM | Cc1ccc(-c2noc(C[C@H](O)C(F)F)n2)cc1NC(=O)c1cnc2cc(COCc3c[nH]nn3)ccn12 [Compound I-575, (S)-7-(((1H-1,2,3-triazol-4-yl)methoxy)methyl)-N-(5-(5-(3,3-difluoro-2-hydroxypropyl)-1,2,4-oxadiazol-3-yl)-2-methylphenyl)imidazo[1,2-a]pyridine-3-carboxamide]
8 | ≤ 50 nM | CCc1nc(-c2ccc(C)c(NC(=O)c3cnc4cc(F)ccn34)c2)no1 [Compound I-739]
9 | ≤ 50 nM | COc1ccn2c(C(=O)Nc3cc(-c4noc(CC5COC5)n4)ccc3C)cnc2c1 [Compound I-633, 7-Methoxy-N-[2-methyl-5-[5-(oxetan-3-ylmethyl)-1,2,4-oxadiazol-3-yl]phenyl]imidazo[1,2-a]pyridine-3-carboxamide]
10 | ≤ 50 nM | COc1ccn2c(C(=O)Nc3cc(-c4noc(CC5CCCCO5)n4)ccc3C)cnc2c1 (centres unmarked) [Compound I-592, 7-methoxy-N-(2-methyl-5-(5-((tetrahydro-2H-pyran-2-yl)methyl)-1,2,4-oxadiazol-3-yl)phenyl)imidazo[1,2-a]pyridine-3-carboxamide]
11 | ≤ 50 nM | COCc1ccn2c(C(=O)Nc3cc(-c4noc([C@@H]5CC6(CC6)CN5)n4)ccc3C)cnc2c1 [Compound I-638, N-[5-[5-[(6S)-5-azaspiro[2.4]heptan-6-yl]-1,2,4-oxadiazol-3-yl]-2-methyl-phenyl]-7-(methoxymethyl)imidazo[1,2-a]pyridine-3-carboxamide]
12 | ≤ 50 nM | CCNc1ccn2c(C(=O)Nc3cc(-c4ncon4)ccc3C)cnc2c1 [Compound I-706]
13 | ≤ 50 nM | Cc1ccc(-c2noc([C@H]3CCN3)n2)cc1NC(=O)c1cnc2cc(-c3ccn(C)n3)ccn12 [Compound I-624, N-[5-[5-[(2R)-azetidin-2-yl]-1,2,4-oxadiazol-3-yl]-2-methyl-phenyl]-7-(1-methylpyrazol-3-yl)imidazo[1,2-a]pyridine-3-carboxamide]
14 | 50 to 500 nM | CNC(C)COCc1ccn2c(C(=O)Nc3cc(-c4noc(CC(O)C(F)F)n4)ccc3C)cnc2c1 (centres unmarked) [Compound I-599]
